Reference: US7604949B2, “Methods and compositions that affect melanogenesis” (New York University, priority 1999, dated 2009)

Columns and labels:
melan-p1 cells [1] = assay: Melanin content of melan-p1 cells with protease inhibitor; format: cell-based, mouse; settings: melan-p1, high concentrations of tyrosine
Method: (§1) (A) Melan-p1 cells incubated in low (0.03 mM) tyrosine and high (0.3 mM) tyrosine (TYR) were treated for 48 hours with increasing concentrations of the protease inhibitor E64 (μM). The tyrosinase activity in the media is expressed as a percentage of total activity in the extract and medium. (B) The concentration of melanin was determined by solubilizing the cell pellet and measuring the absorbance at 470 nm.
(§2) If proteolysis and secretion of tyrosinase were the precipitating factor in the misrouting of tyrosinase, then E64 should increase melanin accumulation in melan-p1 cells. […] A range of E64 concentrations was tested at low (0.03 mM) and high (0.3 mM) tyrosine.

melan-p1 cells [2] = assay: Secretion of tyrosinase into medium of melan-p1 cells with protease inhibitor; format: cell-based, mouse
Method: as §1
Tyrosinase is a type I membrane protein anchored in the membrane, and it is thus likely that proteolysis, which leads to the clipping of the tail, is required for secretion. The truncated protein would not be detected by αPEP7, which is directed against the tail, although the catalytic domains would remain functional. We, therefore, examined the effects of a series of protease inhibitors on the secretion of tyrosinase by melan-a and melan-p1 cells.
as §2

p-glycoprotein ATPase = p-glycoprotein ATPase (Cricetulus griseus, UniProt P21448); settings: micromolar concentrations; cited from earlier work
[3] = test system: Melan-a wild type melanocytes; assay: Melanin content after ATPase inhibitor treatment, Melan-a; format: cell-based, mouse; settings: 36 hours
Method: (§3) Wild type melan-a (a/a, P/P), an immortalized melanocyte line derived from C57BL6J mice; melan-p1 melanocytes (a/a, p^cp/p^25H), an immortalized line derived from p-null mice; melan-p1 (P10), a melan-p1 line stably transfected with an expression plasmid carrying the pink-eyed dilution gene; B16, an amelanotic mouse melanoma cell line; and B16F10, a slightly pigmented mouse melanoma cell line, were used in this study.
(§4) Cells were cultured in RMPI-1640 (Sigma, St. Louis, Mo.) supplemented with 10% fetal calf serum, 5% sodium pyruvate, 5% glutamate, 5 units/ml penicillin, 5 μg/ml streptomycin, 1% non-essential amino acids and 200 nM 12-O-tetradecanoyl phorbol 13-acetate for 24 hours The medium was than replaced with RPMI containing either 0, 1, 2 or 2.5 μM bafilomycin A1 (Sigma, St. Louis, Mo.) or 0, 0.5 or 1.0 μM concanamycin A (Sigma, St. Louis, Mo.). […] The supernatant was removed and protein content determined using a protein assay kit (BioRad, Richmond, Calif.).
(§5) The melanin content in the pellet was determined following removal of the supernatant Each sample was treated with 0.5 ml ethanol:ether (1:1), vortexed and incubated at room temperature for 10 minutes. […] The sample was then transferred to a 96-well plate and the optical density was read at 490 nm. […]

[4] = test system: Melan-p p-null melanocytes; assay: Melanin content after ATPase inhibitor treatment, Melan-p; format: cell-based, mouse; settings: 36 hours
Method: as §3, §4, §5

B16 melanoma cells = assay: Melanin content after ATPase inhibitor treatment, B16; format: cell-based, mouse; settings: 36 hours
Method: as §3, §4, §5

[5] = test system: amelanotic melanoma cells that express tyrosinase; settings: nanomolar concentrations; cited from earlier work
B16F10 melanoma cells = assay: Melanin content after ATPase inhibitor treatment, B16F10; format: cell-based, mouse; settings: 36 hours
Method: as §3, §4, §5

Melan-p (P10) cells = assay: Melanin content after ATPase inhibitor treatment, Melan-p (P10); format: cell-based, mouse; settings: 36 hours
Method: as §3, §4, §5

P protein = target: T1, P protein (Mus musculus, UniProt Q62052); assay: Tyrosinase activity of extracts of COS cells transfected with tyrosinase-encoding and P protein-encoding genes (T+P); format: cell-based; settings: vs untreated
T1 construct: expressed in transfected cells; host or cells: COS cells (monkey kidney), co-transfected with the tyrosinase vector
T1 sequence (Q62052 1-833): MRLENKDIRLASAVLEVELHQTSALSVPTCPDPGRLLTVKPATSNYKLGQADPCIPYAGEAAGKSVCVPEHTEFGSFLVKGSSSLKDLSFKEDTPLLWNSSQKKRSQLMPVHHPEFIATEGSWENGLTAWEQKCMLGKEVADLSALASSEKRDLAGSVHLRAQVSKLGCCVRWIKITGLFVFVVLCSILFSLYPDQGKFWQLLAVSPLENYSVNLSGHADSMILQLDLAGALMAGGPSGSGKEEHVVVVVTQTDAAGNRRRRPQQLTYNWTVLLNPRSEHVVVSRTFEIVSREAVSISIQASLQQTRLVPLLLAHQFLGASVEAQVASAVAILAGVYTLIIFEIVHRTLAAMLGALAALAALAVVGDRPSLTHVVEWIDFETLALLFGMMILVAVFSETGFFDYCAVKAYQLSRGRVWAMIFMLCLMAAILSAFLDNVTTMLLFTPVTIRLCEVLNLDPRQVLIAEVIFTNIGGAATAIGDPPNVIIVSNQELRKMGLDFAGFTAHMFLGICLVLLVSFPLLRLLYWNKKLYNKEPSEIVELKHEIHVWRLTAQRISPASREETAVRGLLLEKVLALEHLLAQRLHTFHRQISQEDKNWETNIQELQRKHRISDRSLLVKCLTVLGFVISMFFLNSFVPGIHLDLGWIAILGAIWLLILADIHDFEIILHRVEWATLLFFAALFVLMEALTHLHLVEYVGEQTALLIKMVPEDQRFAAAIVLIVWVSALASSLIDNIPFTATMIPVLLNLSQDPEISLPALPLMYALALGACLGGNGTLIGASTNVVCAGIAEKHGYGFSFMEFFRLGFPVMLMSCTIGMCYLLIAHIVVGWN
From the text: (§6) Expression vectors were constructed to express P protein and tyrosinase genes in cultured cells. Specifically, the coding sequence for tyrosinase was removed as a HindIII-EcoRI fragment from clone TYBS (Yokohama et al., 1990, Nucl. Acids. Res. 18:7293-7298) and cloned into the HindIII/EcoRI sites of pcDNA I/lamp (Invitrogen, Calif.). Coding sequence for the P protein was removed as a BamHI-EcoRI fragment from MC2701 (Gardner et al., 1992, supra) and cloned into the BamHI/EcoRV sites of pcDNA3 and pcDNA3.1/V5/His-TOPO (Invitrogen, Calif.). COS cells were transfected with the pcDNA1-based plasmids and FuGENE™ 6 (Roche Molecular Biochemicals, Indianapolis, Ind.) as transfection agents for 48 hours. Cells were transformed with: (i) the vector alone; (ii) the vector carrying a tyrosinase-encoding gene; (iii) the vector carrying a P protein-encoding gene; or (iv) vectors carrying a tyrosinase-encoding gene and a P protein-encoding gene. Transformed cells were washed and extracted as above. Tyrosinase activity was then measured as above. Tyrosinase assays were performed on 60 micrograms of cell protein.
(§7) The tyrosinase activity of cell extracts was determined as above.

tyrosinase [6] = target: T2, tyrosinase (Mus musculus, UniProt P11344); assay: Tyrosinase activity of melan-a cell extracts (radiometric tyrosine hydroxylase assay); format: cell-based; settings: melan-a cells, 48 hours, vs untreated
T2 sequence (P11344 19-533): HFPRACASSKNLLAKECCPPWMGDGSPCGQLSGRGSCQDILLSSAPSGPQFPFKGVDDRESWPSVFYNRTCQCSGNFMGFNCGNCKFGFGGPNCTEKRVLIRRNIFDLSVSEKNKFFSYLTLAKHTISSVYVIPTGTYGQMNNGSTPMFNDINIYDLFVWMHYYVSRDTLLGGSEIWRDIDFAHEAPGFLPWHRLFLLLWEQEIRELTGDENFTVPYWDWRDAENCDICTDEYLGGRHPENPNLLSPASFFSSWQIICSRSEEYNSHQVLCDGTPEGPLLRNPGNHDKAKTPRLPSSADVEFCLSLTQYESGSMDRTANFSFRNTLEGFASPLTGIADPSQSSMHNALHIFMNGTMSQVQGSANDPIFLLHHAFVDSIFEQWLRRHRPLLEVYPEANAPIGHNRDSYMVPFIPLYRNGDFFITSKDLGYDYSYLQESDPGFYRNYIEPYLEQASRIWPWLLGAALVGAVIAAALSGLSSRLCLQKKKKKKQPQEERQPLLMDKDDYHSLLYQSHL
Method: Cells were washed and extracted with 50 mM Tris-HCl (pH 7.4), 2 mM EDTA, 150 mM NaCl and 1% Triton X-100. Cell extracts were analyzed for tyrosinase activity using a radiometric tyrosine hydroxylase assay (Orlow, S. J. et al., 1990, supra).

tyrosinase [7] = target: T2, tyrosinase; assay: Tyrosinase activity of extracts of COS cells transfected with tyrosinase-encoding gene alone (V+T); format: cell-based; design: expressed in transfected cells; host or cells: COS cells (monkey kidney); settings: vs untreated
From the text: as §6, §7

[8] = test system: late endosomal/lysosomal cholesterol trafficking; settings: cited from earlier work
[9] = bafilomycin A1 0, 1, 2 or 2.5 μM
[10] = concanamycin A 0, 0.5 or 1.0 μM

Sequence of p-glycoprotein ATPase (P21448 whole entry): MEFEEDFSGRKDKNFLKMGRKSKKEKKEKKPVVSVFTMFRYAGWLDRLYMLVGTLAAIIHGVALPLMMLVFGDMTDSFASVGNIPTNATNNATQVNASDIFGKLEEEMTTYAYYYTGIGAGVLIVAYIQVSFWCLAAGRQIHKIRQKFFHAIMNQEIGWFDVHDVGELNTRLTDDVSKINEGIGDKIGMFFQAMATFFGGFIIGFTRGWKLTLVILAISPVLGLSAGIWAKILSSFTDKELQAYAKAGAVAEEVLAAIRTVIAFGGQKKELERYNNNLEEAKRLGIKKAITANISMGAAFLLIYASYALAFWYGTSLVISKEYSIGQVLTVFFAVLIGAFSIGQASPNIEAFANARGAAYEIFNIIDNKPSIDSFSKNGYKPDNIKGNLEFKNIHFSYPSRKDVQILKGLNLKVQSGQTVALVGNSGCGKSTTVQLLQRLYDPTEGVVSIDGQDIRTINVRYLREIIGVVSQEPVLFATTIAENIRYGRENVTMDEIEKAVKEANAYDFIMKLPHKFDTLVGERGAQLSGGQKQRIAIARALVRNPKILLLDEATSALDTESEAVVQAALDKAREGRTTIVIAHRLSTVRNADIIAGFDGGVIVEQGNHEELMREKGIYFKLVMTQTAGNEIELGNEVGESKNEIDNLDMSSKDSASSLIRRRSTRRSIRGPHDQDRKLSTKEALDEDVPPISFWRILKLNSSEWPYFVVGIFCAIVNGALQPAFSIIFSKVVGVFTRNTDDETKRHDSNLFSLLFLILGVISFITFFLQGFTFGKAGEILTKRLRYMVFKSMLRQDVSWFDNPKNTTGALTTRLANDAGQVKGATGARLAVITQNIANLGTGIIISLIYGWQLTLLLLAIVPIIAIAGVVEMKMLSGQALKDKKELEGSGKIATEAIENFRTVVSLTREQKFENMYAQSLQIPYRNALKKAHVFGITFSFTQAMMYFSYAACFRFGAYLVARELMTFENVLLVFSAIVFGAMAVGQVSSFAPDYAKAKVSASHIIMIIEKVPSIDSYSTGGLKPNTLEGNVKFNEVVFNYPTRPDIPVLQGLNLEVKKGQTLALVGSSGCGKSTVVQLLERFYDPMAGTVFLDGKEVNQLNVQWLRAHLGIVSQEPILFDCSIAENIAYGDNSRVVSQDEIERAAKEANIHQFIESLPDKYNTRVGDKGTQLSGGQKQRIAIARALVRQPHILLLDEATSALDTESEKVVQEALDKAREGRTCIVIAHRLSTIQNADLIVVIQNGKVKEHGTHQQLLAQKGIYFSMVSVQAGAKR

## CC(C)C[C@H](NC(=O)[C@H]1O[C@@H]1C(=O)O)C(=O)NCCCCN=C(N)N [E64]
melan-p1 cells [1]
  intracellular melanin production: reduced intracellular melanin production
melan-p1 cells [2]; melan-p1, 0.03 mM tyrosine, 12.5 μM E64, 48 hours (untreated 7.1%)
  tyrosinase activity in the media as percentage of total activity in extract and medium: 4.0%
melan-p1 cells [2]; melan-p1, 0.03 mM tyrosine, 25 μM E64, 48 hours (untreated 7.1%)
  tyrosinase activity in the media as percentage of total activity in extract and medium: 3.8%
melan-p1 cells [2]; melan-p1, 0.3 mM tyrosine, E64, 48 hours (untreated 6.5%)
  tyrosinase activity in the media as percentage of total activity in extract and medium: 3.9%

## CO/C1=C\C(C)=C\[C@@H](C)[C@@H](O)[C@@H](C)C/C(C)=C/C=C/[C@H](OC)[C@@H]([C@@H](C)[C@@H](O)[C@H](C)[C@@]2(O)C[C@@H](O)[C@H](C)[C@@H](C(C)C)O2)OC1=O [bafilomycin A1]
p-glycoprotein ATPase
  inhibition of p-glycoprotein ATPase activity: inhibit p-glycoprotein ATPase activity at micromolar concentrations
[3]; [9]
  melanin content: initially increases in the presence of μM concentrations of bafilomycin A1 but drops at the highest concentration tested
[4]; [9]
  melanin levels: increased with an increase in bafilomycin A1 concentration
B16 melanoma cells; B16, bafilomycin A1 0, 1, 2 or 2.5 μM
  melanin content: does not respond
[5]
  activation of melanogenesis: activate melanogenesis
B16F10 melanoma cells; B16F10, bafilomycin A1 0, 1, 2 or 2.5 μM
  pigmentation: demonstrates increasing pigmentation which diminishes at higher concentrations
Melan-p (P10) cells; [9]
  melanin content: initially increases in the presence of μM concentrations of bafilomycin A1 but drops at the highest concentration tested

## CN1[C@@H]2CC[C@H]1C[C@@H](OC(c1ccccc1)c1ccccc1)C2 [benztropine]
P protein; 10 micromolar compound
  tyrosinase activity of extracts, cells expressing both P protein and tyrosinase: did not have an appreciable effect
Tyrosinase [6]; 10 micromolar compound
  tyrosinase activity of cell extracts: greater tyrosinase activities than untreated cells
Tyrosinase [7]; 10 micromolar compound
  tyrosinase activity of extracts, cells expressing only tyrosinase: did not have an appreciable effect

## C/C=C/[C@H]1O[C@@](O)([C@@H](C)[C@H](O)[C@H](C)[C@H]2OC(=O)/C(OC)=C/C(C)=C/[C@@H](C)[C@@H](O)[C@@H](CC)[C@@H](O)[C@H](C)C/C(C)=C/C=C/[C@@H]2OC)C[C@@H](O[C@H]2C[C@@H](O)[C@H](OC(N)=O)[C@@H](C)O2)[C@@H]1C [concanamycin A]
p-glycoprotein ATPase
  inhibition of p-glycoprotein ATPase activity: inhibit p-glycoprotein ATPase activity at micromolar concentrations
[3]; [10]
  melanin content: is decreased
[4]; [10]
  melanin levels: increase with an increase in concanamycin A concentration
B16 melanoma cells; B16, concanamycin A 0, 0.5 or 1.0 μM
  melanin content: does not respond
[5]
  activation of melanogenesis: activate melanogenesis
B16F10 melanoma cells; B16F10, concanamycin A 0, 0.5 or 1.0 μM
  pigmentation: demonstrates increasing pigmentation which diminishes at higher concentrations
Melan-p (P10) cells; [10]
  melanin content: is decreased

## C/C=C/[C@H]1O[C@@](O)([C@@H](C)[C@H](O)[C@H](C)[C@H]2OC(=O)/C(OC)=C/C(C)=C/[C@@H](C)[C@@H](O)[C@@H](C)[C@@H](O)[C@H](C)C/C(C)=C/C=C/[C@@H]2OC)C[C@@H](O[C@H]2C[C@@H](O)[C@H](OC(N)=O)[C@@H](C)O2)[C@@H]1C [concanamycin B]
p-glycoprotein ATPase
  inhibition of p-glycoprotein ATPase activity: inhibit p-glycoprotein ATPase activity at micromolar concentrations

## O=C(O)/C=C\C(=O)O.O=[N+]([O-])c1ccc2nc(N3CCNCC3)ccc2c1 [nitroquipazine, 6-nitro-2-(1-piperazinyl)-quinoline maleate]
P protein; 30 micromolar compound
  tyrosinase activity of extracts, cells expressing both P protein and tyrosinase: lower tyrosinase activity
Tyrosinase [6]; 30 micromolar compound
  tyrosinase activity of cell extracts: greater tyrosinase activities than untreated cells
Tyrosinase [7]; 30 micromolar compound
  tyrosinase activity of extracts, cells expressing only tyrosinase: lower tyrosinase activity

## CC(=O)[C@H]1CC[C@H]2[C@@H]3CCC4=CC(=O)CC[C@]4(C)[C@H]3CC[C@]12C [progesterone]
[8]
  cholesterol movement from the PM to the ER, from the late endosome/lysosome to the ER and to the PM: inhibit cholesterol movement

## CCCCCCCCCCCCC/C=C/[C@@H](O)[C@@H](N)CO [sphingosine]
[8]
  cholesterol movement from the PM to the ER, from the late endosome/lysosome to the ER and to the PM: inhibit cholesterol movement
